Laboratory results as given in ChEMBL document CHEMBL3639070, “19-nor-steroid derivatives with a 15Œ±,16Œ±-methylene group and a saturated 17,17-spirolactone ring, use thereof, and medicaments containing said derivatives” (2015).

Biological target: T1, Progesterone receptor (Homo sapiens, UniProt P06401)
T1 sequence (P06401 whole entry): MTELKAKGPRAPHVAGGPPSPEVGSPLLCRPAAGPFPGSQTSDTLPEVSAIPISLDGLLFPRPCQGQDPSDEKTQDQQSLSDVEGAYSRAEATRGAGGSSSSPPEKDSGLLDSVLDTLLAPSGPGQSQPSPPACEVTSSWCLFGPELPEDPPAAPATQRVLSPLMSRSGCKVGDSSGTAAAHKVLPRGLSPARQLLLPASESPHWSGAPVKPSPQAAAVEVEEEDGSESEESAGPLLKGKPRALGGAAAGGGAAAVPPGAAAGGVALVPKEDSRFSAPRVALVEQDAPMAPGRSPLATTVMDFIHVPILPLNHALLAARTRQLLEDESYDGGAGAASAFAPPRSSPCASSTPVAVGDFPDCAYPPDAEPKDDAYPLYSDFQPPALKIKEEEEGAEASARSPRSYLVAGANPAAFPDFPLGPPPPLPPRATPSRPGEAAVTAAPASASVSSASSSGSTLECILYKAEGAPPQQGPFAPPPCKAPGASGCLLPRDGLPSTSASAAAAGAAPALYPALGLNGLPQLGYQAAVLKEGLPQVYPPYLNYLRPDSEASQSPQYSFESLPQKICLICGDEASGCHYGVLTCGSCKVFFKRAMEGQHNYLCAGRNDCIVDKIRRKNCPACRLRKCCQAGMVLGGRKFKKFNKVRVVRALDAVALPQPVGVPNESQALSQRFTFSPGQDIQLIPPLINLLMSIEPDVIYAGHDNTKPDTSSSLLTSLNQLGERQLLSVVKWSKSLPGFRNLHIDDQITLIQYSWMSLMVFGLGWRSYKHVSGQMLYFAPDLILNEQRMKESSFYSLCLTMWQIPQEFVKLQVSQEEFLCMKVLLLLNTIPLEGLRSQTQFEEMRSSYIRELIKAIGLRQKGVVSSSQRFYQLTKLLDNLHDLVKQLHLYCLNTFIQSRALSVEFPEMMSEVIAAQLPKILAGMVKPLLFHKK
Assay: Binding Assay: Using cytosol from progesterone receptor-expressing insect cells (Hi5), competitive binding to the progesterone receptor was determined from the ability to displace 3H-progesterone as reference substance from the receptor.

SMILES: C[C@]12CCC3C4CCC(=O)C=C4[C@@H]4C[C@@H]4C3C1C1CC1[C@@]21CCC(=O)O1 (stereo partly specified)
- IC50: 16 nM
